From patent publication US4593093A, “Acyl derivatives” (priority 1980, dated 1986)
Structures can show the parent of a compound that is named as a salt. Where two headings read alike, the source gives them in different places.

Tests used:
Escherichia coli [1] = assay: Activity in vitro: minimum inhibitory concentration; type: cell-based
Proteus mirabilis = assay: as above; type: cell-based
Proteus morganii = assay: as above; type: cell-based; details: Morganella morganii
Proteus rettgeri = assay: as above; type: cell-based; details: Providencia rettgeri
Proteus inconstans = assay: as above; type: cell-based; details: Providencia alcalifaciens
Proteus vulgaris = assay: as above; type: cell-based
Klebsiella pseumoniae = assay: as above; type: cell-based
Serratia marcescens [2] = assay: as above; type: cell-based
Enterobacter cloacae [3] = assay: as above; type: cell-based
Enterobacter aerogenes = assay: as above; type: cell-based; details: Klebsiella aerogenes
Citrobacter freundii = assay: as above; type: cell-based
Pseudomonas aeruginosa [4] = assay: as above; type: cell-based
Staphylococcus aureus [5] = assay: as above; type: cell-based
Staphylococcus epidermis = assay: as above; type: cell-based
Streptococcus faecalis = assay: as above; type: cell-based; details: Enterococcus faecalis
Streptococcus pyogenes [6] = assay: as above; type: cell-based
Streptococcus pneumoniae = assay: as above; type: cell-based
Streptococcus viridans = assay: as above; type: cell-based
Enterobacter cloacae [7] = assay: Activity in vivo: survival of intraperitoneally infected mice; details: sc, 96 h; mice infected i.p. with Enterobacter cloacae; s.c. twice, 1 h and 3 h after infection; survival on 4th day; read-out: CD50 (dosage at which 50% of the animals survive)
Procedure: (§1) Groups of 5 mice are infected intraperitoneally with an aqueous suspension of various pathogens. The test substance in physiological sodium chloride solution is administered subcutaneously twice, i.e. 1 hour and 3 hours after the infection. The number of surviving animals is determined on the 4th day. Various dosages are administered and that dosage at which 50% of the experimental animals survive (CD50, mg/kg) is determined by interpolation.

Escherichia coli [8] = assay: as above; details: sc, 96 h; mice infected i.p. with Escherichia coli; s.c. twice, 1 h and 3 h after infection; survival on 4th day; read-out: CD50 (dosage at which 50% of the animals survive)
Procedure: as §1

Haemophilus influenzae = assay: as above; details: sc, 96 h; mice infected i.p. with Haemophilus influenzae; s.c. twice, 1 h and 3 h after infection; survival on 4th day; read-out: CD50 (dosage at which 50% of the animals survive)
Procedure: as §1

Klebsiella pneumoniae = assay: as above; details: sc, 96 h; mice infected i.p. with Klebsiella pneumoniae; s.c. twice, 1 h and 3 h after infection; survival on 4th day; read-out: CD50 (dosage at which 50% of the animals survive)
Procedure: as §1

Serratia marcescens [9] = assay: as above; details: sc, 96 h, 1 h and 3 h after infection, survival on 4th day, read-out: CD50 (dosage at which 50% of the animals survive)
Procedure: as §1

Streptococcus pyogenes [10] = assay: as above; details: sc, 96 h; mice infected i.p. with Streptococcus pyogenes; s.c. twice, 1 h and 3 h after infection; survival on 4th day; read-out: CD50 (dosage at which 50% of the animals survive)
Procedure: as §1

Pseudomonas aeruginosa [11] = assay: as above; details: sc, 96 h; mice infected i.p. with Pseudomonas aeruginosa; s.c. three times, 1 h, 3 h and 5 h after infection; survival on 4th day; read-out: CD50 (dosage at which 50% of the animals survive)
Procedure: as §1
*Administered subcutaneously three times: 1 hour, 3 hours and 5 hours

Neisseria moningitidis = assay: as above; details: sc, 96 h; mice infected i.p. with Neisseria moningitidis; s.c. twice, 1 h and 4 h after infection; survival on 4th day; read-out: CD50 (dosage at which 50% of the animals survive)
Procedure: as §1
**Administered subcutaneously twice: 1 hour and 4 hours after the […]

Toxicity, LD50 = details: in vivo
Staphylococcus aureus [12] = assay: Activity in vivo: survival of intraperitoneally infected mice; details: sc, 96 h; mice infected i.p. with Staphylococcus aureus; s.c. twice, 1 h and 3 h after infection; survival on 4th day; read-out: CD50 (dosage at which 50% of the animals survive)
Procedure: as §1

[13] = Enterobacter aerogenes strain 1
[14] = Enterobacter aerogenes strain 2
[15] = Pseudomonas aeruginosa strain 1
[16] = Pseudomonas aeruginosa strain 3
[17] = Streptococcus faecalis strain 1
[18] = Streptococcus faecalis strain 2
[19] = Streptococcus pyogenes strain 1, read-out: Minimum inhibitory concentration
[20] = Streptococcus pyogenes strain 2, read-out: Minimum inhibitory concentration
[21] = mice infected i.p. with Serratia marcescens strain 1, s.c. twice

## CO/N=C(\C(=O)N[C@@H]1C(=O)N2C(C(=O)O)=C(CSc3nc(=O)c(O)nn3C)CS[C@H]12)c1c[se]c(N)n1 [Product C, (6R, 7R)-7-[2-(2-amino-4-selenazolyl)-2-[(Z)-methoxyimino]-acetamido]-3-[[(2,5-dihydro-6-hydroxy-2-methyl-5-oxo-as-triazin-3-yl)thio]methyl]-8-oxo-5-thia-1-azabicyclo[4.2.0]oct-2-ene-2-carboxylic acid disodium salt]
Escherichia coli [1]; Escherichia coli strain 1
  MIC: 0.1 µg/mL
Escherichia coli [1]; Escherichia coli strain 2
  MIC: 0.05 µg/mL
Escherichia coli [1]; Escherichia coli strain 3
  MIC: 0.8 µg/mL
Escherichia coli [1]; Escherichia coli strain 4
  MIC: 0.4 µg/mL
Escherichia coli [1]; Escherichia coli strain 5
  MIC: 0.2 µg/mL
Proteus mirabilis; Proteus mirabilis strain 1
  MIC: 0.012 µg/mL
Proteus mirabilis; Proteus mirabilis strain 2
  MIC: 0.025 µg/mL
Proteus mirabilis; Proteus mirabilis strain 3
  MIC: 1.6 µg/mL
Proteus mirabilis; Proteus mirabilis strain 4
  MIC: 0.012 µg/mL
Proteus mirabilis; Proteus mirabilis strain 5
  MIC: 0.012 µg/mL
Proteus morganii
  MIC: 0.05 µg/mL
Proteus rettgeri
  MIC: 0.1 µg/mL
Proteus inconstans
  MIC: 0.006 µg/mL
Proteus vulgaris
  MIC: 1.6 µg/mL
Klebsiella pseumoniae; Klebsiella pseumoniae strain 1
  MIC: 0.1 µg/mL
Klebsiella pseumoniae; Klebsiella pseumoniae strain 2
  MIC: 0.05 µg/mL
Klebsiella pseumoniae; Klebsiella pseumoniae strain 3
  MIC: 0.1 µg/mL
Serratia marcescens [2]; Serratia marcescens strain 1
  MIC: 0.4 µg/mL
Serratia marcescens [2]; Serratia marcescens strain 2
  MIC: 1.6 µg/mL
Serratia marcescens [2]; Serratia marcescens strain 3
  MIC: 0.1 µg/mL
Enterobacter cloacae [3]; Enterobacter cloacae strain 1
  MIC: > 100 µg/mL
Enterobacter cloacae [3]; Enterobacter cloacae strain 2
  MIC: 3.1 µg/mL
Enterobacter cloacae [3]; Enterobacter cloacae strain 3
  MIC: > 100 µg/mL
Enterobacter aerogenes; [13]
  MIC: 0.1 µg/mL
Enterobacter aerogenes; [14]
  MIC: 0.1 µg/mL
Citrobacter freundii; Citrobacter freundii strain 1
  MIC: 12.5 µg/mL
Citrobacter freundii; Citrobacter freundii strain 2
  MIC: 0.1 µg/mL
Pseudomonas aeruginosa [4]; [15]
  MIC: 3.1 µg/mL
Pseudomonas aeruginosa [4]; Pseudomonas aeruginosa strain 2
  MIC: 6.3 µg/mL
Pseudomonas aeruginosa [4]; [16]
  MIC: 1.6 µg/mL
Staphylococcus aureus [5]; Staphylococcus aureus strain 1
  MIC: 3.1 µg/mL
Staphylococcus aureus [5]; Staphylococcus aureus strain 2
  MIC: 6.3 µg/mL
Staphylococcus aureus [5]; Staphylococcus aureus strain 3
  MIC: 3.1 µg/mL
Staphylococcus aureus [5]; Staphylococcus aureus strain 4
  MIC: 6.3 µg/mL
Staphylococcus epidermis
  MIC: 3.1 µg/mL
Streptococcus faecalis; [17]
  MIC: > 100 µg/mL
Streptococcus faecalis; [18]
  MIC: > 100 µg/mL
Streptococcus pyogenes [6]; [19]
  MIC: 0.05 µg/mL
Streptococcus pyogenes [6]; [20]
  MIC: ≤ 0.012 µg/mL
Streptococcus pneumoniae
  MIC: 0.05 µg/mL
Streptococcus viridans
  MIC: 3.1 µg/mL
Enterobacter cloacae [7]
  ED50: 17 mg/kg
Escherichia coli [8]
  ED50: < 0.003 mg/kg
Haemophilus influenzae
  ED50: < 0.05 mg/kg
Klebsiella pneumoniae
  ED50: 0.23 mg/kg
Serratia marcescens [9]; [21]
  ED50: 0.07 mg/kg
Streptococcus pyogenes [10]
  ED50: 0.04 mg/kg
Pseudomonas aeruginosa [11]
  ED50: 14 mg/kg
Neisseria moningitidis
  ED50: < 0.05 mg/kg
Toxicity, LD50; po
  LD50: > 5000 mg/kg
Toxicity, LD50; sc
  LD50: > 4000 mg/kg

## CO/N=C(\C(=O)N[C@@H]1C(=O)N2C(C(=O)OCOC(=O)C(C)(C)C)=C(C)CS[C@H]12)c1c[se]c(N)n1 [Product H, Methylene (6R, 7R)-7-[2-(2-amino-4-selenazolyl)-2-[(Z)-methoxyimino]-acetamido]-3-methyl-8-oxo-5-thia-1-azabicyclo[4.2.0]oct-2-ene-2-carboxylate pivalate]
Escherichia coli [8]
  ED50: 0.11 mg/kg
Klebsiella pneumoniae
  ED50: 0.44 mg/kg
Staphylococcus aureus [12]
  ED50: > 12 mg/kg
Streptococcus pyogenes [10]
  ED50: 0.13 mg/kg
Pseudomonas aeruginosa [11]
  ED50: > 100 mg/kg
Toxicity, LD50; po
  LD50: > 5000 mg/kg

## CC1=C(C(=O)[O-])N2C(=O)[C@@H](NC(=O)/C(=N\O)c3c[se]c(N)n3)[C@H]2SC1.[Na+] [Product M, (6R, 7R)-7-[2-[2-amino-4-selenazolyl]-2-[(Z)-hydroxyimino]-acetamido]-3-methyl-8-oxo-5-thia-1-azabicyclo[4.2.0]oct-2-ene-2-carboxylic acid sodium salt]
Escherichia coli [1]; Escherichia coli strain 1
  MIC: 0.8 µg/mL
Escherichia coli [1]; Escherichia coli strain 2
  MIC: 0.4 µg/mL
Escherichia coli [1]; Escherichia coli strain 3
  MIC: 50 µg/mL
Escherichia coli [1]; Escherichia coli strain 4
  MIC: 200 µg/mL
Escherichia coli [1]; Escherichia coli strain 5
  MIC: 3.1 µg/mL
Proteus mirabilis; Proteus mirabilis strain 3
  MIC: 0.8 µg/mL
Proteus mirabilis; Proteus mirabilis strain 4
  MIC: 6.3 µg/mL
Proteus mirabilis; Proteus mirabilis strain 5
  MIC: 1.6 µg/mL
Proteus morganii
  MIC: 100 µg/mL
Proteus rettgeri
  MIC: 0.2 µg/mL
Proteus inconstans
  MIC: 0.05 µg/mL
Klebsiella pseumoniae; Klebsiella pseumoniae strain 1
  MIC: 0.8 µg/mL
Klebsiella pseumoniae; Klebsiella pseumoniae strain 2
  MIC: 0.4 µg/mL
Klebsiella pseumoniae; Klebsiella pseumoniae strain 3
  MIC: 0.4 µg/mL
Serratia marcescens [2]; Serratia marcescens strain 1
  MIC: 25 µg/mL
Serratia marcescens [2]; Serratia marcescens strain 2
  MIC: 100 µg/mL
Serratia marcescens [2]; Serratia marcescens strain 3
  MIC: 6.3 µg/mL
Enterobacter cloacae [3]; Enterobacter cloacae strain 1
  MIC: > 200 µg/mL
Enterobacter cloacae [3]; Enterobacter cloacae strain 2
  MIC: > 200 µg/mL
Enterobacter cloacae [3]; Enterobacter cloacae strain 3
  MIC: > 200 µg/mL
Enterobacter aerogenes; [13]
  MIC: 0.4 µg/mL
Enterobacter aerogenes; [14]
  MIC: 1.6 µg/mL
Citrobacter freundii; Citrobacter freundii strain 1
  MIC: 100 µg/mL
Citrobacter freundii; Citrobacter freundii strain 2
  MIC: 1.6 µg/mL
Pseudomonas aeruginosa [4]; [15]
  MIC: > 400 µg/mL
Pseudomonas aeruginosa [4]; [16]
  MIC: > 400 µg/mL
Staphylococcus aureus [5]; Staphylococcus aureus strain 1
  MIC: 3.1 µg/mL
Staphylococcus aureus [5]; Staphylococcus aureus strain 2
  MIC: 6.3 µg/mL
Staphylococcus aureus [5]; Staphylococcus aureus strain 3
  MIC: 3.1 µg/mL
Staphylococcus aureus [5]; Staphylococcus aureus strain 4
  MIC: 6.3 µg/mL
Staphylococcus epidermis
  MIC: 3.1 µg/mL
Streptococcus faecalis; [17]
  MIC: 200 µg/mL
Streptococcus faecalis; [18]
  MIC: > 200 µg/mL
Streptococcus pyogenes [6]; [19]
  MIC: 1.6 µg/mL
Streptococcus pyogenes [6]; [20]
  MIC: 0.1 µg/mL
Streptococcus pneumoniae
  MIC: 6.3 µg/mL
Streptococcus viridans
  MIC: 25 µg/mL
Escherichia coli [8]
  ED50: 1 mg/kg
Serratia marcescens [9]; [21]
  ED50: 3.5 mg/kg
Serratia marcescens [9]; mice infected i.p. with Serratia marcescens strain 2, s.c. twice
  ED50: > 50 mg/kg
Staphylococcus aureus [12]
  ED50: 2.7 mg/kg
Streptococcus pyogenes [10]
  ED50: 0.28 mg/kg
